We go through 14 compounds from ChEMBL document CHEMBL1152200, “Synthesis and biological evaluation of novel sulfonyl-naphthalene-1,4-diols as FabH inhibitors” (Bioorg Med Chem Lett, 2008).

Converted amounts (≈) assume the structure as drawn. The source made the active and inactive calls. The calls are words filed in the database; no cut-off is given here.

For orientation: IC50 means the concentration that gives 50% inhibition. As usually defined, the MIC99 is an inhibitory concentration at the 99% level, which refers to growth in some studies and to a panel of isolates in others.

Test [1] is described as follows: Inhibition of Escherichia coli FabH.
Test [2] concerns the target T1, Beta-ketoacyl-ACP-synthase III (Plasmodium falciparum, UniProt O77078).
T1 sequence (O77078 whole entry): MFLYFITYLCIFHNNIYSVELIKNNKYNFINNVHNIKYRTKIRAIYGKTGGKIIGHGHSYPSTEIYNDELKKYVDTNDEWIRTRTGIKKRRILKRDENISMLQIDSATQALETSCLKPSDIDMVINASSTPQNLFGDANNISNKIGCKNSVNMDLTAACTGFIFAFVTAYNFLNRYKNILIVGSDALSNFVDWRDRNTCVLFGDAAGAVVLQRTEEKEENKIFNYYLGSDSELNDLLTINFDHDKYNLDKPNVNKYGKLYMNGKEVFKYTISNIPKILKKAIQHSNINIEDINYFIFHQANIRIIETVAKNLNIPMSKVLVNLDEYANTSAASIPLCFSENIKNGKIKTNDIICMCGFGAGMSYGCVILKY
The test is described as follows: Inhibition of Plasmodium falciparum FabH.

Test [3] deals with T2, Mycobacterial beta-ketoacyl-[acyl-carrier-protein] synthase III (Mycobacterium tuberculosis, UniProt P9WNG3).
T2 sequence (P9WNG3 whole entry): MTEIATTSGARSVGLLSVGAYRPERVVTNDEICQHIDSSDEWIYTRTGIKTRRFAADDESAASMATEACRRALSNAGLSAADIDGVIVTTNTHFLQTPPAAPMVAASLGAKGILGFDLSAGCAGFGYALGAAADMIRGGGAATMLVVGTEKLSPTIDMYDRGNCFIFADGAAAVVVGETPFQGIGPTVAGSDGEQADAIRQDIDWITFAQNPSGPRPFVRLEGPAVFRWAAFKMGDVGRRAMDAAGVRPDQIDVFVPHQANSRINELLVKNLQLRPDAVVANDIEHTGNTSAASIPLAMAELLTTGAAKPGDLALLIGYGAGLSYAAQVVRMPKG
The test is described as follows: Inhibition of Mycobacterium tuberculosis FabH.

The subject of test [4] is Escherichia coli. Description: Inhibition of Escherichia coli FabH at below 10 uM.
Test [5] deals with T3, Beta-ketoacyl-ACP-synthase III (Plasmodium falciparum) (UniProt O77078).
T3 sequence (whole entry): T1 sequence (O77078 whole entry)
The test is described as follows: Inhibition of Plasmodium falciparum FabH at below 100 uM.

Test [6] relates to Escherichia coli. The test is described as follows: Antibacterial activity against Escherichia coli tolC mutant. The test is classed as functional.
Test [7] has as its system Plasmodium falciparum. Description: Antiplasmodial activity against chloroquine-sensitive Plasmodium falciparum D6. The test is classed as functional, organism-based.
Test [8] deals with Escherichia coli. The test is described as follows: Inhibition of Escherichia coli FabH assessed as restoration activity in presence of phosphate buffer after 16 hrs. The arrangement: scale not given: the % may be the effect or the level left.

In the case of `Cc1ccc(S(=O)(=O)C2=CC(=O)c3ccccc3C2=O)cc1`, the 50% inhibitory concentration (IC50) in test [1] came to 187 nM; in test [2], 1420 nM; in test [3], 1.99 nM.
`Cc1ccc(SC2=CC(=O)c3ccccc3C2=O)cc1`: the outcome in test [4] and in test [5] was inactive. In test [3], this compound registered an IC50 of 112 nM.
For the compound `O=S(=O)(c1ccc2ccccc2c1)c1cc(O)c2ccccc2c1O`, the results for the IC50 in test [1], in test [2] and in test [3] were 15.4 nM, 393 nM and 1.49 nM, respectively.
For `Cc1ccc(S(=O)(=O)c2ccc3ccccc3c2)cc1`, the results for the IC50 in test [1], in test [3] and in test [7] were above 10000 nM, 138 nM and 8.74 µg/mL (≈ 31 µM), respectively. Besides, the outcome in test [4] and in test [5] was inactive. In test [6], this compound showed an MIC99 above 90 µg/mL.
For the compound `Cc1ccc(S(=O)(=O)c2cc(O)c3ccccc3c2O)cc1`, the IC50 in test [1] was found to be 13.6 nM; in test [2] it was 73.6 nM; in test [3] it was 0.61 nM; in test [7], 7.69 µg/mL (≈ 24.5 µM). Moreover, in test [8], the Activity amounted to 90%. The MIC99 in test [6] came to 14.1 µg/mL (≈ 44.9 µM).
As for `O=S(=O)(c1ccc(Cl)cc1)c1cc(O)c2ccccc2c1O`, the IC50 in test [1] amounted to 8.8 nM; in test [2], 129 nM; in test [3] it was 3.61 nM; in test [7], 3.23 µg/mL (≈ 9.65 µM).
Consider `Cc1ccc(S(=O)(=O)c2cc(O)ccc2O)cc1`, for which the IC50 was above 10000 nM in test [1], 34.4 nM in test [3] and 31.3 µg/mL (≈ 119 µM) in test [7]. Also, the result in test [4] and in test [5] was inactive. In test [6], this compound had an MIC99 above 90 µg/mL.
Consider `O=S(=O)(c1ccccc1)c1cc(O)c2ccccc2c1O`, for which the figures for the IC50 in test [1], in test [2] and in test [3] were 21.2 nM, 279 nM and 2.84 nM, respectively.
For the compound `CS(=O)(=O)c1cc(O)c2ccccc2c1O`, the IC50 amounted to 87.3 nM in test [1], 27.4 nM in test [2] and 3.53 nM in test [3]. Moreover, the MIC99 in test [6] came out at 9.7 µg/mL (≈ 40.7 µM).
With `Cc1ccc(S(=O)(=O)c2cc(O)c3cc4ccccc4cc3c2O)cc1`, the IC50 in test [1] came out at 112 nM; in test [2], 341 nM; in test [3], 8.47 nM.
On to `CCCc1ccc(S(=O)(=O)c2cc(O)c3ccccc3c2O)cc1`, for which the IC50 in test [1] worked out at 9.7 nM; in test [2] it was 72.6 nM; in test [3], 3.09 nM.
Consider `CC(=O)Nc1ccc(S(=O)(=O)c2cc(O)ccc2O)cc1`, for which the values for the IC50 in test [1], in test [3] and in test [7] were above 10000 nM, 31.4 nM and 3.96 µg/mL (≈ 12.9 µM), respectively. Besides, the outcome in test [4] and in test [5] was inactive. Besides, the MIC99 in test [6] is above 90 µg/mL.
With `CC(=O)Nc1ccc(S(=O)(=O)c2cc(O)c3ccccc3c2O)cc1`, the IC50 amounted to 11.8 nM in test [1], 29.6 nM in test [2], 3.76 nM in test [3] and 4.98 µg/mL (≈ 13.9 µM) in test [7]. Besides, the MIC99 in test [6] stood at 12.3 µg/mL (≈ 34.4 µM).
Turning to `O=C(O)CCS(=O)(=O)c1cc(O)c2ccccc2c1O`, the IC50 in test [1] stood at 96.5 nM; in test [2], 46.5 nM; in test [3] it was 3.53 nM.
